Test results as given in US9682931B2, “Aryloyl(oxy or amino)pentafluorosulfanylbenzene compound, pharmaceutically acceptable salt thereof, and prodrugs thereof” (UBE INDUSTRIES, LTD., priority 2013, dated 2017).
Converted amounts (≈) assume the structure as drawn.

Columns and labels:
[1] = test system: Salmonella typhimurium TA98 strain and TA100 strain; experiment: Growth inhibitory action and bactericidal action on salmonella (preincubation method, with and without S9 mix); type: cell-based; conditions: TA98 and TA100, presence or absence of S9 mix; for Bactericidal action: lowest concentration at which all bacterial cells were killed; for Growth inhibition: lowest concentration at which growth was inhibited
Protocol: Growth inhibitory action and bactericidal action on salmonella
1) Preparation of Test-Substance Solution
Test substances (compounds listed in Table 1) each were prepared by dissolving it in DMSO when used. Preparation was made in such a manner that the highest dose became 5000 μg/plate and the dose lower than this was prepared by a dilution method. In the table, reference numerals of individual compounds correspond to the numbers of the individual compounds synthesized in the above Examples (the same applies to the following Tables).
Salmonella typhimurium TA98 strain and TA100 strain were used.
These were supplied by Japan Bioassay Research Center, proliferated and examined for genetic properties and other properties in accordance with customary methods, in advance. After these strains were confirmed to have these properties, they are cryopreserved (−80° C.) with a DMSO-added medium; and thawed for use in each test.
3) A cryopreserved strain was thawed and inoculated in a 2.5% aqueous nutrient broth (OXOID No. 2) solution and cultured while shaking at 37° C. for 7 hours to obtain a cell suspension, which was subjected to tests.
A minimum glucose agar plate medium (Vital Media AMT-S, manufactured by Kyokuto Pharmaceutical Industrial Co., Ltd.) was used.
The top agar was prepared when used by blending an aqueous solution of 0.5 mM L-histidine and 0.5 mM D-(+)-biotin with an aqueous solution prepared by adding Bacto Agar (Difco) (0.6%) and sodium chloride (0.5%).
S9 was purchased from Kikkoman; whereas a cofactor was previously prepared in accordance with a method known in the art. They were mixed in a customary method to prepare S9 mix.
Using a test system containing S9 mix and a test system containing no S9 mix, a test was carried out in accordance with a preincubation method. As the dose selection, the highest dose was specified as […], which was then serially diluted in a common ratio of 2 to prepare a total of 15 doses to be used in the test.
To a sterile test tube, a test solution (0.1 mL) and 0.1 M Na-phosphate buffer or S9 mix (0.5 mL) and a cell suspension (0.1 mL) were sequentially dispensed. Pre-incubation was carried out at 37° C. for 20 minutes while shaking. After completion of the pre-incubation, top agar (2 mL) kept warm at 45° C. was added, mixed and placed on a minimum glucose agar plate medium. After solidification, the plate was turned upside down and cultured at 37° C. for 48 hours.
After completion of the culture, the state of microbial growth was observed by a stereomicroscope. After a precipitate on the plate was observed, revertant colonies were counted by the naked eye or a colony counter.
7) Criteria for Determination
Growth of both TA98 and TA100 strains was examined in the presence or absence of S9 mix. Among the resultant concentrations at which growth was inhibited, the lowest concentration was specified as the growth inhibitory concentration. Similarly, the bactericidal concentration was specified as the lowest concentration at which all bacterial cells were killed.

[2] = test system: Trichophyton mentagrophytes NBRC5466 (trichophyton); experiment: Antifungal test, minimum inhibitory concentration (MIC), trichophyton; type: cell-based; conditions: NBRC5466, 168 h, 27±2° C., 7 days
Protocol: Antimicrobial/Antifungal Test
Measurement of the Minimum Inhibitory Concentration (MIC) of a Test Substance
The minimum inhibitory concentration (MIC) of test substances (Compound 3, Compound 7) on a microorganism was measured.
1) Test Microbe (a) Staphylococcus aureus MRSAIID 1677 (methicillin-resistant staphylococcus aureus; MRSA) (b) Trichophyton mentagrophytes NBRC5466 (trichophyton)
2) Preparation of Microbe Solution for Inoculation
Test microbe (b): A strain cryopreserved was applied on PDA medium and cultured at 27±2° C. for 7 days. Spores were scraped out and suspended in a test microbe preparation solution, filtered with absorbent cotton. The solution was prepared so as to have a number of spores of about 10^6 CFU/mL. The test microbe solution prepared was serially diluted by 10-fold and cultured at 27±2° C. for 7 days and then the microbe cells were counted.
3) Serial Dilution of Test Substance
Two-fold serial dilutions of a test substance were prepared in the following procedure. To a test substance (1 mg), a medium (5 mL) for measuring the sensitivity of each microbe strains was added to obtain a stock solution of 200 μg/mL. […]
A test microbe solution (5 μL) was added dropwise to individual wells of the microplate. […] After culture, whether the microbe proliferated or not was determined by the naked eye. […]

| SMILES | Bactericidal action [1] [μg/plate] | Growth inhibition [1] [μg/plate] | MIC [2] [µg/mL] |
| --- | --- | --- | --- |
| O=C(Oc1ccc(S(F)(F)(F)(F)F)cc1)c1cc(O)c(O)c(O)c1 [Compound 7, 4-(3,4,5-trihydroxybenzoyloxy)pentafluorosulfanylbenzene] | 156 | 19.5 | 6.3 (≈ 16.9 µM) |
| O=C(Nc1ccc(S(F)(F)(F)(F)F)cc1)c1cc(O)c(O)c(O)c1 [Compound 3, 4-(3,4,5-trihydroxybenzoylamino)pentafluorosulfanylbenzene] | 625 | 19.5 | – |
